Drawing on ChEMBL document CHEMBL4507295 (2021), this text covers inhibition and residual activity for two compounds.

The target of data set [1] is Delta-type opioid receptor (Homo sapiens) (UniProt P41143). The note with it: Compound concentration 10.0 uM.
In data set [2] the target is Tyrosine-protein kinase Blk (Homo sapiens) (UniProt P51451). The note with it: Compound concentration 1000.0 nM.
In data set [3] the target is T1, 5-hydroxytryptamine receptor 3A (Homo sapiens) (UniProt P46098).
T1 sequence (whole entry): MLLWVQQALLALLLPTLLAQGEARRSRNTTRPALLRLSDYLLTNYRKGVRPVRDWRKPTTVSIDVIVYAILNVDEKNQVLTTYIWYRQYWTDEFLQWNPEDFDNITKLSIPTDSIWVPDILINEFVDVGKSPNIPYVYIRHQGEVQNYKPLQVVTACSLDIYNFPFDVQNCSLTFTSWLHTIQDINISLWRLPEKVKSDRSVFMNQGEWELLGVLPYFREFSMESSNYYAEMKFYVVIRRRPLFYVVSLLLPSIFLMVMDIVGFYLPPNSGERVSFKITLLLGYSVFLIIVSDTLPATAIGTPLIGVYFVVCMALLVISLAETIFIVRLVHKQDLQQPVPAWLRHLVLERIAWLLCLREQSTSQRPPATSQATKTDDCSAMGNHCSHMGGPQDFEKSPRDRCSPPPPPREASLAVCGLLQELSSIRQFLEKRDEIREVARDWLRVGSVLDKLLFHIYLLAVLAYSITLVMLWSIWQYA
Nature of the data set: Inhibition of Serotonin (5-Hydroxytryptamine) 5-HT3 at 10 µM in the Eurofins-Panlabs radioligand binding assay (Eurofins_assay_271910). Set-up: ligand concentration 0.69 nM. Particulars: Compound concentration 10.0 uM; call rule not given here.

Data set [4] has as its target Somatostatin receptor type 1 (Homo sapiens) (UniProt P30872). Nature of the data set: Somatostatin sst1 Eurofins-Panlabs radioligand binding assay. Set-up: ligand concentration 0.1 nM. The note with it: Compound concentration 10.0 uM.
Another data set concerns the target monoamine oxidase MAO-A (Homo sapiens, UniProt P21397). Nature of the data set: Inhibition of Monoamine Oxidase MAO-A at compound concentration of 10.0 uM in the Eurofins-Panlabs enzyme assay (Eurofins_assay_140010). Set-up: substrate with concentration 50 uM Kynuramine, incubation time 60 min, incubation temperature 37 C. Particulars: recombinant human MAO-A expressed in insect Hi5 cells, probe kynuramine (50 uM), compound concentration 10 uM.

The target in data set [5] is hERG (KCNH2) potassium channel (Homo sapiens, UniProt Q12809). Nature of the data set: Potassium Channel hERG Eurofins-Panlabs radioligand binding assay. Set-up: ligand concentration 0.05 nM, non-specific ligand with concentration 1 µM L-706,000, incubation time 75 min, incubation temperature 25 °C. Particulars: HEK-293 cells expressing recombinant human hERG, probe [S35] L-706,000 (radioligand, 0.05 nM), compound concentration 10 uM. For orientation: Block of hERG is tested as a sign of cardiac risk.

Data set [6] has as its target Sodium-dependent serotonin transporter (Homo sapiens) (UniProt P31645). The note with it: Compound concentration 10.0 uM.
Data set [7] addresses Prostaglandin D2 receptor (Homo sapiens) (UniProt Q13258). Nature of the data set: Prostanoid DP Eurofins-Panlabs radioligand binding assay. The note with it: Compound concentration 10.0 uM.
Data set [8] has as its target Polyunsaturated fatty acid lipoxygenase ALOX12 (Homo sapiens) (UniProt P18054). Briefly: Lipoxygenase 12-LO Eurofins-Panlabs enzyme assay. Set-up: substrate with concentration. Particulars: Compound concentration 10.0 uM.
Data set [9] concerns the target C-X-C chemokine receptor type 2 (Homo sapiens) (UniProt P25025). Briefly: Inhibition of Chemokine CXCR2 (IL-8RB) at 10 µM in the Eurofins-Panlabs radioligand binding assay (Eurofins_assay_244500). Particulars: Compound concentration 10.0 uM.
Data set [10] addresses GABA-A receptor; anion channel (Rattus norvegicus) (UniProt O09028+P15431+P18506+P18508+P19969+P20236+P23574+P23576+P28471+P28473+P30191+P62813+P63079+P63138+Q91ZM7+Q9ES14). The note with it: Compound concentration 10.0 uM.
Data set [11] deals with Phosphodiesterase 3 (Homo sapiens) (UniProt Q14432+Q13370). Nature of the data set: Inhibition of Phosphodiesterase PDE3 at compound concentration of 10.0 uM in the Eurofins-Panlabs enzyme assay (Eurofins_assay_152000). The class given is protein assay. Set-up: substrate with concentration 1.01 uM [3H] cAMP + cAMP, incubation time 20 min, incubation temperature 25 C. Particulars: Compound concentration […].

In data set [12] the target is Kappa-type opioid receptor (Homo sapiens) (UniProt P41145). The note with it: Compound concentration 10.0 uM.
The species entered for the next data set is Homo sapiens. Briefly: Prostanoid, Thromboxane A2 (TP) Eurofins-Panlabs radioligand binding assay. Set-up: ligand concentration 5 nM, non-specific ligand with concentration 1 µM SQ-29548, incubation time 30 min, incubation temperature 25 °C. Particulars: Compound concentration 10.0 uM.
The target of data set [13] is Adenosine receptor A3 (Homo sapiens) (UniProt P0DMS8). The note with it: Compound concentration 10.0 uM.
For data set [14], the species on record is Rattus norvegicus. Briefly: Adrenergic α1, Non-selective Eurofins-Panlabs radioligand binding assay. The class given is protein assay. The note with it: Compound concentration 10.0 uM.
For data set [15], the target named is Beta-3 adrenergic receptor (Homo sapiens) (UniProt P13945). The note with it: Compound concentration 10.0 uM.
The target of data set [16] is Cannabinoid receptor 1 (Homo sapiens) (UniProt P21554). Briefly: Cannabinoid CB1 Eurofins-Panlabs radioligand binding assay. Particulars: Compound concentration 10.0 uM.
For data set [17], the target named is Muscarinic acetylcholine receptor M2 (Homo sapiens) (UniProt P08172). The note with it: Compound concentration 10.0 uM.
For data set [18], the target named is Glucocorticoid receptor (Homo sapiens) (UniProt P04150). Nature of the data set: Glucocorticoid Eurofins-Panlabs radioligand binding assay. Particulars: Compound concentration 10.0 uM.
The target in data set [19] is Melanocortin receptor 5 (Homo sapiens) (UniProt P33032). Nature of the data set: Inhibition of Melanocortin MC5 at 10 µM in the Eurofins-Panlabs radioligand binding assay (Eurofins_assay_251400). Set-up: ligand concentration 0.035 nM. The note with it: Compound concentration 10.0 uM.
Data set [20] concerns the target Glutamate NMDA receptor; GRIN1/GRIN2A (Homo sapiens) (UniProt Q05586+Q12879). Nature of the data set: NMDA-NR1a/NR2a Eurofins-Panlabs radioligand binding assay. Particulars: Compound concentration 10.0 uM. It is filed as protein-complex assay.
The species entered for data set [21] is Rattus norvegicus. Briefly: Inhibition of Glutamate, NMDA, Phencyclidine at 10 µM in the Eurofins-Panlabs radioligand binding assay (Eurofins_assay_233000). The class given is protein-complex assay. The note with it: Compound concentration 10.0 uM.
Data set [22] concerns the target Oxytocin receptor (Homo sapiens) (UniProt P30559). Nature of the data set: Oxytocin Eurofins-Panlabs radioligand binding assay. The note with it: Compound concentration 10.0 uM.
Data set [23] addresses Platelet-activating factor receptor (Homo sapiens) (UniProt P25105). Briefly: Inhibition of Platelet Activating Factor (PAF) at 10 µM in the Eurofins-Panlabs radioligand binding assay (Eurofins_assay_265010). The note with it: Compound concentration 10.0 uM.
The species entered for the next data set is Bos taurus. Nature of the data set: Phosphodiesterase PDE6 Eurofins-Panlabs enzyme assay. Set-up: substrate with concentration [3H] cGMP + cGMP, incubation time 20 min, incubation temperature 25 °C. The note with it: Compound concentration 100.0 uM.
The target in data set [24] is T2, D(4) dopamine receptor (Homo sapiens) (UniProt P21917).
T2 sequence (whole entry): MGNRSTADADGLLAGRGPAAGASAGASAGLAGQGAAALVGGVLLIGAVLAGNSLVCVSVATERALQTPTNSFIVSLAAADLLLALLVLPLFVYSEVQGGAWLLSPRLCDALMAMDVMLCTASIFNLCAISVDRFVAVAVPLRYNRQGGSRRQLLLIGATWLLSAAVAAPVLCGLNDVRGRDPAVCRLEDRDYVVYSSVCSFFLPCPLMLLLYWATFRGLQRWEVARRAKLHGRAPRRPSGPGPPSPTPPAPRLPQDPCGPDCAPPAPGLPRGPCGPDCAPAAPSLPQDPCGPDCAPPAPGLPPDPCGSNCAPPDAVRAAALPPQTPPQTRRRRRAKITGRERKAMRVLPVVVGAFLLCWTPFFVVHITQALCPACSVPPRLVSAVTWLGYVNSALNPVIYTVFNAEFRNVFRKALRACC
Nature of the data set: Dopamine D4.4 Eurofins-Panlabs radioligand binding assay. Particulars: Compound concentration 10.0 uM. Set-up: ligand concentration 1.2 nM.

The target in a further data set is Caspase-7 (Homo sapiens) (UniProt P55210). Nature of the data set: Peptidase, CASP7 (Caspase 7) Eurofins-Panlabs enzyme assay. Particulars: Compound concentration 10.0 uM.
Data set [25] has as its target Type-1 angiotensin II receptor (Homo sapiens) (UniProt P30556). Briefly: Angiotensin AT1 Eurofins-Panlabs radioligand binding assay. The note with it: Compound concentration 10.0 uM.

Sodium-dependent serotonin transporter (Homo sapiens), sequence (P31645 whole entry, looked up): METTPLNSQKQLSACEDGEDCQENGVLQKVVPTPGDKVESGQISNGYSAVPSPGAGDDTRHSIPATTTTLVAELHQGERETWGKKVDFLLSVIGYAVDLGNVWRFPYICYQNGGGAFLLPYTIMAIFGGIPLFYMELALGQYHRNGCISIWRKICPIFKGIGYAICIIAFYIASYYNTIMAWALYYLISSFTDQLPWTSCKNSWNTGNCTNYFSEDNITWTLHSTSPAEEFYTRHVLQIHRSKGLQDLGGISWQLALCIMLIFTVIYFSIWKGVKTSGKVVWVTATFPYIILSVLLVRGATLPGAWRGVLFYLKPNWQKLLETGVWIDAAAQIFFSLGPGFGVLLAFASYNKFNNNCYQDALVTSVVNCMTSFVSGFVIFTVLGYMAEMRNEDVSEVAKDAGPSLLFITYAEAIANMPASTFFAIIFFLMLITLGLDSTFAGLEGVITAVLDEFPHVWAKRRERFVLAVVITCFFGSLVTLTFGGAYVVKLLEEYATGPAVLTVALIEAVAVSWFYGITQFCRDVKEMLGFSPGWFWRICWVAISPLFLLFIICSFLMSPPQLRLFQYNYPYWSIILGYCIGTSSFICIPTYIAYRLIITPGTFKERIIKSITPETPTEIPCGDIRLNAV
Cannabinoid receptor 1 (Homo sapiens), sequence (P21554 whole entry): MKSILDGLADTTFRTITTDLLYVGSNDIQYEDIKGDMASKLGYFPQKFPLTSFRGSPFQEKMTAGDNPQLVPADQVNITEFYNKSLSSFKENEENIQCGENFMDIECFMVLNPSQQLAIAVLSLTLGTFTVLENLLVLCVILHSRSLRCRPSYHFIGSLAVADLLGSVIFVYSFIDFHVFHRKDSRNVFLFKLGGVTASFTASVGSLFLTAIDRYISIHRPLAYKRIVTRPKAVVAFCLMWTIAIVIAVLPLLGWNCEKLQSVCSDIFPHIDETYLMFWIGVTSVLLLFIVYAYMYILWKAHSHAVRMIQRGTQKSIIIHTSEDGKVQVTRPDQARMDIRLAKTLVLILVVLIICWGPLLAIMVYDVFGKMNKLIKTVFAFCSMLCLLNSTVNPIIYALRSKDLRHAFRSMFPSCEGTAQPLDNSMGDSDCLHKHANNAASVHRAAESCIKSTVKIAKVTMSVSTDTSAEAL
Type-1 angiotensin II receptor (Homo sapiens), sequence (P30556 whole entry): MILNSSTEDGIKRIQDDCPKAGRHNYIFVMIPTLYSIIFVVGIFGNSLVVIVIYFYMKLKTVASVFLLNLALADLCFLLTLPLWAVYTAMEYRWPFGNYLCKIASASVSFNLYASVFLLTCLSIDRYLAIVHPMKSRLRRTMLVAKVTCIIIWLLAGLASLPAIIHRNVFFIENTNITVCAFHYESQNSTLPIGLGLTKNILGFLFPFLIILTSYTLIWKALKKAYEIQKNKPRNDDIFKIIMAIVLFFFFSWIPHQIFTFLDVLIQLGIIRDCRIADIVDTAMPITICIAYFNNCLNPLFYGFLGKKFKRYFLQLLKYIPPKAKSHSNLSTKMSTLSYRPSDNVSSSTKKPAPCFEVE
Oxytocin receptor (Homo sapiens), sequence (P30559 whole entry): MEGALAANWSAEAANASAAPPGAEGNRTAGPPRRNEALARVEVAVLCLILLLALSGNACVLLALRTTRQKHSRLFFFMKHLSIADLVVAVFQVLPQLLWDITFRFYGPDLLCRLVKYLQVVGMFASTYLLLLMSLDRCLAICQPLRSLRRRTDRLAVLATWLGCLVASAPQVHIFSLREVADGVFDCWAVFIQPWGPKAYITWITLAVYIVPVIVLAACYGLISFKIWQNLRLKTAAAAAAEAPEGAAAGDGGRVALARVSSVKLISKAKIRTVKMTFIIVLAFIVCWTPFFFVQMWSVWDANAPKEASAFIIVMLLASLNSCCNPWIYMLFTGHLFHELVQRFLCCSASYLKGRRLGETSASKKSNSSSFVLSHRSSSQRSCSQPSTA
monoamine oxidase MAO-A, sequence (P21397 whole entry): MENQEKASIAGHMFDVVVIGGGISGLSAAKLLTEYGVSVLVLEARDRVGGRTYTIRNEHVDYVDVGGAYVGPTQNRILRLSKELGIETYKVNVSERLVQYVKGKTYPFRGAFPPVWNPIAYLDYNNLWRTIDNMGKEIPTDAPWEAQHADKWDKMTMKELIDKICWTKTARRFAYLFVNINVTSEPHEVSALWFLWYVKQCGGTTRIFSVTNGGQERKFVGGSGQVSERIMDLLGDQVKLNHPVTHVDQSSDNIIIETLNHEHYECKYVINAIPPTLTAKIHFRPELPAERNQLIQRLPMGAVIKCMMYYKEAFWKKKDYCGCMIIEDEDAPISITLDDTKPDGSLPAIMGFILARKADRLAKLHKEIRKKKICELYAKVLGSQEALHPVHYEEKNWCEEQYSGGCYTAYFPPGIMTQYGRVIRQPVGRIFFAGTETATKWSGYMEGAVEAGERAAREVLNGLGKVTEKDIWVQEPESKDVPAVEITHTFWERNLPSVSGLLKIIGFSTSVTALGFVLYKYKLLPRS
Delta-type opioid receptor (Homo sapiens), sequence (P41143 whole entry): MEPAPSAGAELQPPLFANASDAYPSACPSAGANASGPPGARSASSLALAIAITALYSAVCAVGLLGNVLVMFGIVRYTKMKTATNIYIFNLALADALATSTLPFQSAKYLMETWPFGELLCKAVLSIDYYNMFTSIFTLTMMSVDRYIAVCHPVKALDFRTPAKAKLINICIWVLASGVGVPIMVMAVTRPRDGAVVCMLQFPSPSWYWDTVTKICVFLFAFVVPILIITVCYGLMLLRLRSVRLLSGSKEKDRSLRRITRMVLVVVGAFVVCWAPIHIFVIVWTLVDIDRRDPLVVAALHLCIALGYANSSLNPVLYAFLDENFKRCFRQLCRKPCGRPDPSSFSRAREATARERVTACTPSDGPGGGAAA
Tyrosine-protein kinase Blk (Homo sapiens), sequence (P51451 2-505 limits assumed): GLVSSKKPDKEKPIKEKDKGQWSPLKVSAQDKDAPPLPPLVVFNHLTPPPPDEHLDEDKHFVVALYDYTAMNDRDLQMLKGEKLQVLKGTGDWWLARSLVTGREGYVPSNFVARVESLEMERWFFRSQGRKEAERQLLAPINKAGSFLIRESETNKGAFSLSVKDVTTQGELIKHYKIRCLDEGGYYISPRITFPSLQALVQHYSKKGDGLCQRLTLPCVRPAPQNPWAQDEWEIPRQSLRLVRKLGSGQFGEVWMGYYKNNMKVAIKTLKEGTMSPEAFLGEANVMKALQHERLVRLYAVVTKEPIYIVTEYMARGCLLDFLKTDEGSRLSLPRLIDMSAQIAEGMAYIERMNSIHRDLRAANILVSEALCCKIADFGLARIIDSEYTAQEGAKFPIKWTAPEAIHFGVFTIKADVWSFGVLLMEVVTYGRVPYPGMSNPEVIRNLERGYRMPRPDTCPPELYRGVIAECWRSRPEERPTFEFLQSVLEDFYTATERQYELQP
Polyunsaturated fatty acid lipoxygenase ALOX12 (Homo sapiens), sequence (P18054 whole entry): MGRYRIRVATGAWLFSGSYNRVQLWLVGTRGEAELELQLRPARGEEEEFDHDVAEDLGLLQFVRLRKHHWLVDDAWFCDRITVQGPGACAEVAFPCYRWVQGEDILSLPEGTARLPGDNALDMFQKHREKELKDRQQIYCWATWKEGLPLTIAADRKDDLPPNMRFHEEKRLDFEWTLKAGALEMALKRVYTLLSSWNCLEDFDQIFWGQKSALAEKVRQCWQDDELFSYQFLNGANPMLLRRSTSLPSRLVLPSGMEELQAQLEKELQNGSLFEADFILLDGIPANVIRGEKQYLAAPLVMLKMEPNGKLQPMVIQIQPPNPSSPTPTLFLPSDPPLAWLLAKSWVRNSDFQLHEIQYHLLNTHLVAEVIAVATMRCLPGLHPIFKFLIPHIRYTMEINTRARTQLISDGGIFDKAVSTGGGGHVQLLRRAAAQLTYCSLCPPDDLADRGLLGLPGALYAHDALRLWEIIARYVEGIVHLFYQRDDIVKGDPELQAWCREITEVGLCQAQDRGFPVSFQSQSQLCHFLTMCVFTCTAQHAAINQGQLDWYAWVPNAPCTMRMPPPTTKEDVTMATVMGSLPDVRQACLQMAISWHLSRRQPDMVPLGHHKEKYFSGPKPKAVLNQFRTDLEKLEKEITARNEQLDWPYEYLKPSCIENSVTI
Glucocorticoid receptor (Homo sapiens), sequence (P04150 whole entry): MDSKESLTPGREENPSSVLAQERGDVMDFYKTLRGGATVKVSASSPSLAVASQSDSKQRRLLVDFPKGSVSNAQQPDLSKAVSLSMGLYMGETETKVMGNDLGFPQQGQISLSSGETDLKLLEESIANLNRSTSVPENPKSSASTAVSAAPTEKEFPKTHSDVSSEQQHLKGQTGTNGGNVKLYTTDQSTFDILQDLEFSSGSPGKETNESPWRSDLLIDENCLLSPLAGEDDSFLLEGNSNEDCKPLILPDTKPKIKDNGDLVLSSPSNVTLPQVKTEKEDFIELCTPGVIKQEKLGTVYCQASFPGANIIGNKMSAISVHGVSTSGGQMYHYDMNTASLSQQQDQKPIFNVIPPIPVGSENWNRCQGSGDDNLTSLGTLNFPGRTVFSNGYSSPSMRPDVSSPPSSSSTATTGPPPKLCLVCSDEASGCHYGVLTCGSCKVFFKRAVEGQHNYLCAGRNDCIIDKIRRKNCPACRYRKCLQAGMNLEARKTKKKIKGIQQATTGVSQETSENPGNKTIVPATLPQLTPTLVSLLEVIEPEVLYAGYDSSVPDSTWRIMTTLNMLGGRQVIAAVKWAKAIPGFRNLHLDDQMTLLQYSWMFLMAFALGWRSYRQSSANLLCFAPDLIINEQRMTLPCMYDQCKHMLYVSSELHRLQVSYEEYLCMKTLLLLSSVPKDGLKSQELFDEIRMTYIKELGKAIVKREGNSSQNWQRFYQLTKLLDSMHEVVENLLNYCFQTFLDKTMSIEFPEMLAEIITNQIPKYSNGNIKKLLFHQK
Caspase-7 (Homo sapiens), sequence (P55210 24-198 limits assumed): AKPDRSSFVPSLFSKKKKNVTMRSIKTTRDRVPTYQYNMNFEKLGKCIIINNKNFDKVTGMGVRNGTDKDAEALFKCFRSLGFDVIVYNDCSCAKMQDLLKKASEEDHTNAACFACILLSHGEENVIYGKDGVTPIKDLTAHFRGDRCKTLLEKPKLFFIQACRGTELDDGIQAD
Caspase-7 (Homo sapiens), sequence (P55210 207-303 limits assumed): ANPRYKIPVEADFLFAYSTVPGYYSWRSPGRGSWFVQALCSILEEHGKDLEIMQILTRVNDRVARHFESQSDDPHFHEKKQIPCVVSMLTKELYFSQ

Regarding `N#CC1(c2ccccn2)CCN(Cc2cc(C(=O)N3CCCC3)c(=O)n3ccccc23)CC1`, in [1], the inhibition – broadly, the change of the read-out against control, counted positive when it falls – is -0.84%. For the same compound, the residual activity (as a rule, what remains of the control signal, in per cent) in data set [2] is 73%.
Take `N#CC1(c2ccccn2)CCN(Cc2cc(C(=O)O)c(=O)n3ccccc23)CC1` [MSD-M1PAM]: the inhibition in data set [3] is 17%; in data set [4] it was -3%; in data set [6] it was 19%; in data set [7] it was 29%; in data set [8], 13%; in [9], 0%. For the same compound, the inhibition in data set [10] is 18%; in data set [11], 1%; in [12] it was 2%; in the data set filed under Homo sapiens it was 21%; in data set [13], -3%; in the data set filed under Rattus norvegicus [14] it was -4%. Besides, the inhibition in data set [15] is -5%; in data set [16] it was -3%; in data set [17], 2%; in data set [18], 4%; in data set [19] it was 1%; in data set [20] it was -6%. The inhibition in the data set listed under Rattus norvegicus [21] is 11%; in data set [22] it was -5%; in data set [23], -5%; in the data set listed under Bos taurus, 5%; in data set [24], 3%; on Caspase-7 (Homo sapiens), 5%. The inhibition in data set [25] is -8%. The inhibition at 60 min, 10 µM on monoamine oxidase MAO-A was 12% (not active). In addition, the inhibition at 75 min, 10 µM in [5] is 5% (not active).
